In patent US20090311716A1, “METHODS TO TREAT OR PREVENT HORMONE-RESISTANT PROSTATE CANCER USING siRNA [sequence] FOR PROTOCADHERIN-PC, OR OTHER INHIBITORS OF PROTOCADHERIN-PC EXPRESSION OR ACTIVITY” (THE TRUSTEES OF COLUMBIA UNIVERSITY IN THE CITY OF NEW YORK, priority 2005, published 2009):
Entries after “also recorded” stand apart in the source; their conditions may differ. Peptide text beside a SMILES is read from it. * marks the point of attachment. Cbz = O=C(OCc1ccccc1)*

What was measured:
Assay type in all cases: cell-based, human
[1] = test system: PCDH-PC; experiment: Western blot of myc-tagged PCDH-PC in LNCaP cells co-transfected with pPCDH-PC-myc and siRNA; details: siRNA 100 nM co-transfected with pPCDH-PC-myc, 48 hrs
Excerpt: FIGS. 4A-4B. siRNAs against PCDH-PC suppress PCDH-PC expression and NE transdifferentiation of LNCaP cells. FIG. 4A. LNCaP cells were transfected with the pPCDH-PC-myc expression vector and were co-transfected with siRNA against human lamin or siRNAs 181, 190 or 208 designed to suppress PCDH-PC expression. A Western blot made against protein extracts from these cells were probed with anti-myc (Top Panel) to identify expression of the 110 kd PCDH myc-tagged protein, anti-β-actin (Middle Panel) or anti-human E-cadherin (Bottom Panel). FIG. 4B. A repeated experiment that includes control LNCaP cells (no transfection) or pCMV-PCDH-myc transfected LNCaP cells co-transfected with siRNAs against lamin or against PCDH-PC (181, 190 or 208). The Western blot was probed for NSE expression (Top Panel) or for β-actin expression (Bottom Panel).
Expression Vectors, Transfection Protocols and Luciferase/β-Glactosidase Assays. PCDH-PC cDNA was inserted into the mammalian expression vectors pcDNA3 (Invitrogen Life Technologies, Inc., Carlsbad, Calif.) or into pCMV-myc (BD Biosciences, Clontech, Inc., Palo Alto, Calif.) so that the PCDH-PC product generated from this vector (pPCDH-PC-myc) has a C-terminal myc tag. An expression vector containing cDNA encoding a mutated (stabilized) form of human β-catenin (Tetsu and McCormick, 1999) was used. A dominant-negative Tcf expression vector used was previously described (Chen et al., 2001). The Tcf-sensitive reporter vector, pTOP and a CMV-promoted β-galactosidase expression vector were obtained from Upstate Biotechnology, Inc. Transfections used for protein or RNA extractions were done in 35 cm^2 dishes with cells plated at 50% density 12-16 hrs prior. […] Luciferase activity in cell extracts was measured using the Luciferase Assay System of Promega, Inc. (Madison, Wis.). β-galactosidase activity was also measured in the same cell extracts using the β-galactosidase Enzyme Assay System of Promega, Inc. All experiments involving luciferase reporter vectors were done in triplicate for each point. […]

[2] = test system: hAR protein; experiment: Western blot of hAR protein in Wnt-activated LNCaP cells; details: β-catenin or PCDH-PC transfected or 7 days androgen-free LNCaP
Excerpt: FIGS. 43A-43C. […] FIG. 43A. […] FIG. 43B.
(§1) FIGS. 44A-44B. Suppression of MDM2 expression or direct Akt activity relieves Wnt-mediated suppression of hAR protein expression. FIG. 44A. […] (middle). Actin control (bottom). FIG. 44B. […] Actin control (bottom).
(§2) Cell lines, plasmids and siRNAs. LNCaP, CWR22rv-1, PC-3 and DU145 cells were obtained from ATCC and were passaged in normal (for LNCaP, RPMI 1640 with 10% fetal calf serum and supplements) or androgen-free maintained as previously described (Yang et al., 2005). A defective adenovirus that expresses Wnt-1 protein (Ad-Wnt-1) and control, Lac Z expressing adenovirus (Ad-lac Z) were previously described (Young et al., 1998). These viruses were applied at 20 particles/cell in low serum (2%) medium for 1 h. Expression plasmids containing mutated (stabilized) human β-catenin (Tetsu and McCormick, 1999), dominant negative TCF-4 (Chen et al., 2001) or PCDH-PC cDNA were transfected into cells as previously described (Example 1; Yang et al., 2005). Small interfering (si) RNAs targeting β-catenin or lamin were purchased from Dharmacon Inc. siRNA targeting human MDM2 was purchased from Qiagen Inc (Valencia, Calif.). siRNAs were transfected into cells. Proteasome inhibitors MG132 and lactacystin were purchased from Sigma Chemical Co. (St Louis, Mo.) and were used at 5 (MG 132) or 10 (lactacystin) […] for 12 h prior to cell harvesting. PI3-kinase inhibitor LY294002 (Sigma Chemical Co.) and Akt Inhibitor IV (compound 5233705, EMD Biosciences Inc., San Diego, Calif.) (Kau et al., 2003) were used at 4 and 50 mM concentrations, respectively, for 12 h prior to harvesting cells.
(§3) Preparation of cell extracts and western blots. Cells were harvested and protein extracts prepared, quantified and used to prepare Western blots as previously described (Example 1; Yang et al., 2005). […] Recombinant Wnt-1 protein (HA-tagged) was detected with anti-HA antibody (Clontech Inc., Mountain View, Calif.). Antibody binding to the Western blot was detected as previously described (Yang et al., 2005). […]

[3] = test system: MDM2; experiment: Western blot of phosphorylated MDM2 in Wnt-activated LNCaP cells; details: β-catenin transfected or 7 days androgen-free LNCaP
Excerpt: as §1
(§4) FIG. 45. Proteasome inhibitors block the suppression of MDM2 phosphorylation and suppress degradation of PP2A B subunit protein in Wnt-activated LNCaP cells. […] There was no change in the PP2A catalytic C subunit levels in Wnt-activated or proteasome-inhibitor treated cells (bottom).
as §2, with “PI3-kinase inhibitor LY294002 (Sigma Chemical Co.) and Akt Inhibitor IV (compound 5233705, EMD Biosciences Inc., San Diego, Calif.) (Kau et al., 2003) were used at 4 and 50 mM concentrations, respectively, for 12 h prior to harvesting cells.” left out
as §3

[4] = test system: PP2A B subunit; experiment: Western blot of PP2A B subunit in Wnt-activated LNCaP cells
Excerpt: as §4
Preparation of cell extracts and western blots. Cells were harvested and protein extracts prepared, quantified and used to prepare Western blots as previously described (Example 1; Yang et al., 2005). Western blots were probed with mouse monoclonal antibodies against human Akt protein, phospho-MDM2 (ser 166), hAR (Santa Cruz Biotechnology Inc., Santa Cruz, Calif.), actin (Sigma Chemical Co., St Louis, Mo.) or with rabbit polyclonal antibodies against phospho-Akt (ser 473) or human MDM2 (Cell Signaling Technology, Beverly, Mass.). Recombinant Wnt-1 protein (HA-tagged) was detected with anti-HA antibody (Clontech Inc., Mountain View, Calif.). Antibody binding to the Western blot was detected as previously described (Yang et al., 2005). Densitometry of films was carried out using a Kodak Image Station 420.

[5] = test system: PCDH-PC mRNA; experiment: RT-PCR of PCDH-PC mRNA in LNCaP cells; details: 1 mM db-cAMP, 50 ng/ml IL-6 or 5 nM NS-398, 5 days
Excerpt: (§5) FIGS. 3A-3D. […] FIG. 3A. […] FIG. 3B. […] FIG. 3C. […] FIG. 3D.
FIG. 5A. […] FIG. 5B. […] FIG. 5C.

[6] = test system: NSE and chromogranin-A; experiment: Western blot of NE biomarkers in LNCaP cells treated with NE transdifferentiation inducers; details: 1 mM db-cAMP, 50 ng/ml IL-6 or 5 nM NS-398, 5 days
Excerpt: as §5

siRNA #208: 21 bp siRNA targeting PCDH-PC mRNA position 3345-3364, 19 bp core with UU overhangs (SEQ ID NO:7) (AAGAAACTAAGGCAGATGATG; listed as DNA, further chemistry not given here)
expression of myc-tagged PCDH-PC polypeptide [1]: suppressive effects

CC(C)C[C@@H](C=O)NC(=O)[C@H](CC(C)C)NC(=O)[C@H](CC(C)C)NC(=O)OCc1ccccc1 [MG132] (Cbz-Leu-Leu-Leu-aldehyde)
Wnt-mediated suppression of hAR protein expression [2]: restored to levels commensurate with elevated hAR mRNA levels
Wnt-mediated upregulation of MDM2 phosphorylation [3]: blocked
loss of PP2A regulatory subunit B [4]: blocked

CC[n+]1c(/C=C/N(C)c2ccccc2)n(-c2ccccc2)c2ccc(-c3nc4ccccc4s3)cc21.[I-] [compound 5233705]
Wnt-mediated suppression of hAR protein expression [2]: significant elevation; also recorded: relieves
Wnt-mediated upregulation of MDM2 phosphorylation [3]: able to suppress; also recorded: relieves

CC(=O)N[C@@H](CSC(=O)[C@]1([C@@H](O)C(C)C)NC(=O)[C@H](C)[C@@H]1O)C(=O)O [lactacystin]
Wnt-mediated suppression of hAR protein expression [2]: restored to levels commensurate with elevated hAR mRNA levels
Wnt-mediated upregulation of MDM2 phosphorylation [3]: blocked
loss of PP2A regulatory subunit B [4]: blocked

interleukin-6 [IL-6]
expression of PCDH-PC mRNA [5]: highly upregulated
expression of NSE and chromogranin-A proteins [6]: highly upregulated

siRNA #190: 21 bp siRNA targeting PCDH-PC mRNA position 3098-3117, 19 bp core with UU overhangs (SEQ ID NO:6) (AAACATGCAGAATTCTGAATG; listed as DNA, further chemistry not given here)
expression of myc-tagged PCDH-PC polypeptide [1]: suppressive effects

CS(=O)(=O)Nc1ccc([N+](=O)[O-])cc1OC1CCCCC1 [NS-398]
expression of PCDH-PC mRNA [5]: highly upregulated
expression of NSE and chromogranin-A proteins [6]: highly upregulated
